In the supplement of paper PMC10307832:

Tests used:
Assay in all cases: relative viability (nuclei count vs DMSO), 5 days (fraction); higher = more cells survive
NCI-H2347 = test system: NCI-H2347
Method in brief: (§1)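 Relative viability was taken as the ratio of nuclei in treated wells to nuclei in vehicle wells. Lung cancer cell lines in 1536-well plates received compounds by pin tool one day after seeding, either one drug alone or a fixed anchor-drug dose plus five library-drug doses (not always all listed) in √10 steps. Nuclei were counted on 4× images after 5 days of treatment, and values are medians of duplicate plates.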

NCI-H522 = test system: NCI-H522
Method in brief: as §1

EMC-BAC-2 = test system: EMC-BAC-2
Method in brief: as §1

NCI-H3122 = test system: NCI-H3122
Method in brief: as §1

HCC-44 = test system: HCC-44
Method in brief: as §1

NCI-H838 = test system: NCI-H838
Method in brief: as §1

NCI-H1395 = test system: NCI-H1395
Method in brief: as §1

NCI-H2023 = test system: NCI-H2023
Method in brief: as §1

NCI-H1993 = test system: NCI-H1993
Method in brief: as §1

201T = test system: 201T
Method in brief: as §1

NCI-H727 = test system: NCI-H727
Method in brief: as §1

NCI-H23 = test system: NCI-H23
Method in brief: as §1

BEN = test system: BEN
Method in brief: as §1

LCLC-103H = test system: LCLC-103H
Method in brief: as §1

NCI-H647 = test system: NCI-H647
Method in brief: as §1

NCI-H2126 = test system: NCI-H2126
Method in brief: as §1

NCI-H441 = test system: NCI-H441
Method in brief: as §1

NCI-H596 = test system: NCI-H596
Method in brief: as §1

NCI-H2087 = test system: NCI-H2087
Method in brief: as §1

NCI-H650 = test system: NCI-H650
Method in brief: as §1

HARA = test system: HARA
Method in brief: as §1

LOU-NH91 = test system: LOU-NH91
Method in brief: as §1

**Q.** Which results are given for `O=c1cc(N2CCOCC2)oc2c(-c3cccc4c3sc3ccccc34)cccc12` + CC(=O)Nc1cccc(-n2c(=O)n(C3CC3)c(=O)c3c(Nc4ccc(I)cc4F)n(C)c(=O)c(C)c32)c1 [Trametinib] (partner 0.02 µM)?
**A.** relative viability (NCI-H2347; first compound 0.01 µM): 0.263; relative viability (NCI-H2347; first compound 0.03162 µM): 0.287; relative viability (NCI-H2347; first compound 0.1 µM): 0.269; relative viability (NCI-H2347; first compound 0.3162 µM): 0.309; relative viability (NCI-H2347; first compound 1 µM): 0.229; relative viability (NCI-H522; first compound 0.01 µM): 0.733; relative viability (NCI-H522; first compound 0.03162 µM): 0.86; relative viability (NCI-H522; first compound 0.1 µM): 0.793; relative viability (NCI-H522; first compound 0.3162 µM): 0.684; relative viability (NCI-H522; first compound 1 µM): 0.963; relative viability (EMC-BAC-2; first compound 0.01 µM): 0.976; relative viability (EMC-BAC-2; first compound 0.03162 µM): 0.93; relative viability (EMC-BAC-2; first compound 0.1 µM): 0.931; relative viability (EMC-BAC-2; first compound 0.3162 µM): 0.774; relative viability (EMC-BAC-2; first compound 1 µM): 0.865; relative viability (NCI-H3122; first compound 0.01 µM): 0.217; relative viability (NCI-H3122; first compound 0.03162 µM): 0.225; relative viability (NCI-H3122; first compound 0.1 µM): 0.245; relative viability (NCI-H3122; first compound 0.3162 µM): 0.216; relative viability (NCI-H3122; first compound 1 µM): 0.202; relative viability (HCC-44; first compound 0.01 µM): 1.04; relative viability (HCC-44; first compound 0.03162 µM): 1.06; relative viability (HCC-44; first compound 0.1 µM): 1.02; relative viability (HCC-44; first compound 0.3162 µM): 1.04; relative viability (HCC-44; first compound 1 µM): 1.03; relative viability (NCI-H838; first compound 0.01 µM): 0.594; relative viability (NCI-H838; first compound 0.03162 µM): 0.557; relative viability (NCI-H838; first compound 0.1 µM): 0.481; relative viability (NCI-H838; first compound 0.3162 µM): 0.469; relative viability (NCI-H838; first compound 1 µM): 0.442; relative viability (NCI-H1395; first compound 0.03162 µM): 1.1; relative viability (NCI-H1395; first compound 0.1 µM): 1.02; relative viability (NCI-H1395; first compound 0.3162 µM): 1.07; relative viability (NCI-H1395; first compound 1 µM): 1.01; relative viability (NCI-H2023; first compound 0.01 µM): 0.676; relative viability (NCI-H2023; first compound 0.03162 µM): 0.574; relative viability (NCI-H2023; first compound 0.1 µM): 0.624; relative viability (NCI-H2023; first compound 0.3162 µM): 0.601; relative viability (NCI-H2023; first compound 1 µM): 0.396; relative viability (NCI-H1993; first compound 0.01 µM): 0.507; relative viability (NCI-H1993; first compound 0.03162 µM): 0.601; relative viability (NCI-H1993; first compound 0.1 µM): 0.507; relative viability (NCI-H1993; first compound 0.3162 µM): 0.407; relative viability (NCI-H1993; first compound 1 µM): 0.516; relative viability (201T; first compound 0.01 µM): 0.708; relative viability (201T; first compound 0.03162 µM): 0.683; relative viability (201T; first compound 0.1 µM): 0.69; relative viability (201T; first compound 0.3162 µM): 0.721; relative viability (201T; first compound 1 µM): 0.701; relative viability (NCI-H727; first compound 0.01 µM): 0.38; relative viability (NCI-H727; first compound 0.03162 µM): 0.372; relative viability (NCI-H727; first compound 0.1 µM): 0.389; relative viability (NCI-H727; first compound 0.3162 µM): 0.391; relative viability (NCI-H727; first compound 1 µM): 0.37; relative viability (NCI-H23; first compound 0.01 µM): 0.351; relative viability (NCI-H23; first compound 0.03162 µM): 0.375; relative viability (NCI-H23; first compound 0.3162 µM): 0.359; relative viability (NCI-H23; first compound 1 µM): 0.347; relative viability (BEN; first compound 0.01 µM): 1.06; relative viability (BEN; first compound 0.03162 µM): 1.07; relative viability (BEN; first compound 0.1 µM): 1.06; relative viability (BEN; first compound 0.3162 µM): 1.01; relative viability (BEN; first compound 1 µM): 0.943; relative viability (LCLC-103H; first compound 0.01 µM): 0.712; relative viability (LCLC-103H; first compound 0.03162 µM): 0.698; relative viability (LCLC-103H; first compound 0.1 µM): 0.678; relative viability (LCLC-103H; first compound 0.3162 µM): 0.652; relative viability (LCLC-103H; first compound 1 µM): 0.663; relative viability (NCI-H647; first compound 0.01 µM): 0.503; relative viability (NCI-H647; first compound 0.03162 µM): 0.489; relative viability (NCI-H647; first compound 0.1 µM): 0.487; relative viability (NCI-H647; first compound 0.3162 µM): 0.449; relative viability (NCI-H647; first compound 1 µM): 0.472; relative viability (NCI-H2126; first compound 0.01 µM): 0.543; relative viability (NCI-H2126; first compound 0.03162 µM): 0.52; relative viability (NCI-H2126; first compound 0.1 µM): 0.54; relative viability (NCI-H2126; first compound 0.3162 µM): 0.567; relative viability (NCI-H2126; first compound 1 µM): 0.569; relative viability (NCI-H441; first compound 0.01 µM): 0.513; relative viability (NCI-H441; first compound 0.03162 µM): 0.431; relative viability (NCI-H441; first compound 0.1 µM): 0.406; relative viability (NCI-H441; first compound 0.3162 µM): 0.479; relative viability (NCI-H441; first compound 1 µM): 0.42; relative viability (NCI-H596; first compound 0.01 µM): 0.758; relative viability (NCI-H596; first compound 0.03162 µM): 0.866; relative viability (NCI-H596; first compound 0.1 µM): 0.831; relative viability (NCI-H596; first compound 0.3162 µM): 0.711; relative viability (NCI-H596; first compound 1 µM): 0.717; relative viability (NCI-H2087; first compound 0.01 µM): 0.225; relative viability (NCI-H2087; first compound 0.03162 µM): 0.195; relative viability (NCI-H2087; first compound 0.1 µM): 0.231; relative viability (NCI-H2087; first compound 0.3162 µM): 0.188; relative viability (NCI-H2087; first compound 1 µM): 0.214; relative viability (NCI-H650; first compound 0.01 µM): 1.05; relative viability (NCI-H650; first compound 0.03162 µM): 1.1; relative viability (NCI-H650; first compound 0.3162 µM): 0.939; relative viability (NCI-H650; first compound 1 µM): 1.04; relative viability (HARA; first compound 0.01 µM): 0.377; relative viability (HARA; first compound 0.03162 µM): 0.828; relative viability (HARA; first compound 0.1 µM): 0.688; relative viability (HARA; first compound 0.3162 µM): 0.621; relative viability (HARA; first compound 1 µM): 0.649; relative viability (LOU-NH91; first compound 0.01 µM): 0.801; relative viability (LOU-NH91; first compound 0.03162 µM): 0.798; relative viability (LOU-NH91; first compound 0.1 µM): 0.782; relative viability (LOU-NH91; first compound 0.3162 µM): 0.821; relative viability (LOU-NH91; first compound 1 µM): 0.767
